Data as given in PubChem BioAssay (NCI).
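Exposure lasted 48 hours, with cells grown in 96-well plates and compounds tested at five concentrations. The concentration for 50% growth inhibition is given as GI50. TGI: total growth inhibition.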

Tests used:
Test in all cases: NCI anticancer screen, dose series, 48 h
[1] = tested on: NCI-H23 lung
[2] = tested on: LOX IMVI melanoma
[3] = tested on: CCRF-CEM leukemia
[4] = tested on: HL-60(TB) leukemia
[5] = tested on: OVCAR-3 ovarian
[6] = tested on: MDA-MB-231 breast
[7] = tested on: SK-MEL-2 melanoma
[8] = tested on: HS 578T breast
[9] = tested on: PC-3 prostate
[10] = tested on: SK-MEL-28 melanoma
[11] = tested on: UACC-62 melanoma
[12] = tested on: SK-OV-3 ovarian
[13] = tested on: IGROV1 ovarian
[14] = tested on: BT-549 breast
[15] = tested on: OVCAR-8 ovarian
[16] = tested on: NCI/ADR-RES ovarian
[17] = tested on: A498 renal
[18] = tested on: SF-295 CNS
[19] = tested on: CAKI-1 renal
[20] = tested on: UO-31 renal
[21] = tested on: SF-539 CNS
[22] = tested on: SW-620 colon
[23] = tested on: HT29 colon
[24] = tested on: T-47D breast
[25] = tested on: SN12C renal
[26] = tested on: RPMI-8226 leukemia
[27] = tested on: NCI-H226 lung
[28] = tested on: RXF 393 renal
[29] = tested on: M14 melanoma
[30] = tested on: HOP-62 NSCLC
[31] = tested on: NCI-H460 lung
[32] = tested on: NCI-H522 lung
[33] = tested on: OVCAR-5 ovarian
[34] = tested on: OVCAR-4 ovarian
[35] = tested on: SR leukemia
[36] = tested on: SNB-19 CNS
[37] = tested on: COLO 205 colon
[38] = tested on: UACC-257 melanoma
[39] = tested on: A549 NSCLC
[40] = tested on: HOP-92 NSCLC
[41] = tested on: TK-10 renal
[42] = tested on: MOLT-4 leukemia
[43] = tested on: MCF7 breast
[44] = tested on: HCT-15 colon
[45] = tested on: MALME-3M melanoma
[46] = tested on: SK-MEL-5 melanoma
[47] = tested on: 786-0 renal
[48] = tested on: SF-268 CNS
[49] = tested on: DU-145 prostate
[50] = tested on: SNB-75 CNS
[51] = tested on: EKVX NSCLC
[52] = tested on: HCT-116 colon
[53] = tested on: U251 CNS
[54] = tested on: HCC-2998 colon
[55] = tested on: MDA-MB-435
[56] = tested on: KM12 colon
[57] = tested on: ACHN renal
[58] = tested on: K-562 leukemia

## CCN1CCN(Cc2ccc(NC(=O)c3nc4ccc5[nH]ncc5c4c4c3CCCC4)cc2C(F)(F)F)CC1
[1]
  GI50: 1760 nM
  TGI: 7210 nM
[2]
  GI50: 836 nM
  TGI: 1550 nM
[3]
  GI50: 1150 nM
  TGI: 3260 nM
[4]
  GI50: 983 nM
  TGI: 1990 nM
[5]
  GI50: 997 nM
  TGI: 1920 nM
[6]
  GI50: 879 nM
  TGI: 1660 nM
[7]
  GI50: 850 nM
  TGI: 1900 nM
[8]
  GI50: 969 nM
  TGI: 2130 nM
[9]
  GI50: 1300 nM
  TGI: 4200 nM
[10]
  GI50: 899 nM
  TGI: 1650 nM
[11]
  GI50: 922 nM
  TGI: 1880 nM
[12]
  GI50: 7250 nM
  TGI: 14200 nM
[13]
  GI50: 892 nM
  TGI: 1720 nM
[14]
  GI50: 6330 nM
  TGI: 13000 nM
[15]
  GI50: 1010 nM
  TGI: 2050 nM
[16]
  GI50: 1080 nM
  TGI: 2820 nM
[17]
  GI50: 6890 nM
  TGI: 14400 nM
[18]
  GI50: 888 nM
  TGI: 1800 nM
[19]
  GI50: 976 nM
  TGI: 2420 nM
[20]
  GI50: 729 nM
  TGI: 1400 nM
[21]
  GI50: 870 nM
  TGI: 1600 nM
[22]
  GI50: 969 nM
  TGI: 1890 nM
[23]
  GI50: 923 nM
  TGI: 1910 nM
[24]
  GI50: 854 nM
  TGI: 1920 nM
[25]
  GI50: 865 nM
  TGI: 1630 nM
[26]
  GI50: 1070 nM
  TGI: 2610 nM
[27]
  GI50: 2980 nM
  TGI: 13600 nM
[28]
  GI50: 738 nM
  TGI: 1430 nM
[29]
  GI50: 885 nM
  TGI: 1800 nM
[30]
  GI50: 815 nM
  TGI: 1650 nM
[31]
  GI50: 935 nM
  TGI: 1780 nM
[32]
  GI50: 882 nM
  TGI: 1850 nM
[33]
  GI50: 1480 nM
  TGI: 5460 nM
[34]
  GI50: 1070 nM
  TGI: 2630 nM
[35]
  GI50: 1190 nM
  TGI: 2650 nM
[36]
  GI50: 931 nM
  TGI: 2010 nM
[37]
  GI50: 861 nM
  TGI: 1680 nM
[38]
  GI50: 938 nM
  TGI: 1840 nM
[39]
  GI50: 1320 nM
  TGI: 3800 nM
[40]
  GI50: 1610 nM
  TGI: 7650 nM
[41]
  GI50: 1830 nM
  TGI: 6790 nM
[42]
  GI50: 1010 nM
  TGI: 2280 nM
[43]
  GI50: 884 nM
  TGI: 1840 nM
[44]
  GI50: 950 nM
  TGI: 1960 nM
[45]
  GI50: 827 nM
  TGI: 1590 nM
[46]
  GI50: 903 nM
  TGI: 1630 nM
[47]
  GI50: 886 nM
  TGI: 1650 nM
[48]
  GI50: 2300 nM
  TGI: 9200 nM
[49]
  GI50: 1250 nM
  TGI: 2980 nM
[50]
  GI50: 1060 nM
  TGI: 7170 nM
[51]
  GI50: 2090 nM
  TGI: 8810 nM
[52]
  GI50: 870 nM
  TGI: 1700 nM
[53]
  GI50: 883 nM
  TGI: 1630 nM
[54]
  GI50: 816 nM
  TGI: 1590 nM
[55]
  GI50: 918 nM
  TGI: 1670 nM
[56]
  GI50: 988 nM
  TGI: 1940 nM
[57]
  GI50: 861 nM
  TGI: 1560 nM
[58]
  GI50: 827 nM
  TGI: 2120 nM

## COC(=O)CCC1=C(C)C(C)=N/C1=C\c1[nH]c(-c2ccc[nH]2)cc1OC
[1]
  GI50: 805 nM
  TGI: 11400 nM
[2]
  GI50: 221 nM
  TGI: 609 nM
[3]
  GI50: 403 nM
  TGI: 13600 nM
[4]
  GI50: 567 nM
  TGI: 3340 nM
[5]
  GI50: 478 nM
  TGI: 2410 nM
[6]
  GI50: 228 nM
  TGI: 2090 nM
[7]
  GI50: 363 nM
  TGI: 1210 nM
[8]
  GI50: 1060 nM
  TGI: 8150 nM
[9]
  GI50: 633 nM
  TGI: 14400 nM
[10]
  GI50: 1850 nM
  TGI: 8470 nM
[11]
  GI50: 365 nM
  TGI: 1260 nM
[12]
  GI50: 2820 nM
  TGI: 15900 nM
[13]
  GI50: 1060 nM
  TGI: 17400 nM
[14]
  GI50: 621 nM
  TGI: 13400 nM
[15]
  GI50: 334 nM
  TGI: 12400 nM
[16]
  GI50: 476 nM
  TGI: 13200 nM
[17]
  GI50: 3350 nM
  TGI: 15800 nM
[18]
  GI50: 724 nM
  TGI: 4280 nM
[19]
  GI50: 338 nM
  TGI: 6360 nM
[20]
  GI50: 479 nM
  TGI: 2550 nM
[21]
  GI50: 639 nM
  TGI: 6380 nM
[22]
  GI50: 385 nM
  TGI: 11900 nM
[23]
  GI50: 277 nM
  TGI: 3850 nM
[24]
  GI50: 329 nM
  TGI: 3420 nM
[25]
  GI50: 805 nM
  TGI: 14300 nM
[26]
  GI50: 356 nM
  TGI: 1920 nM
[27]
  GI50: 313 nM
  TGI: 1800 nM
[28]
  GI50: 242 nM
  TGI: 1060 nM
[29]
  GI50: 548 nM
  TGI: 12200 nM
[30]
  GI50: 471 nM
  TGI: 1720 nM
[31]
  GI50: 490 nM
  TGI: 12100 nM
[32]
  GI50: 515 nM
  TGI: 1910 nM
[33]
  GI50: 490 nM
  TGI: 12200 nM
[34]
  GI50: 371 nM
  TGI: 7460 nM
[35]
  GI50: 352 nM
[36]
  GI50: 1890 nM
  TGI: 17000 nM
[37]
  GI50: 394 nM
  TGI: 1480 nM
[38]
  GI50: 1440 nM
  TGI: 9860 nM
[39]
  GI50: 368 nM
  TGI: 10200 nM
[40]
  GI50: 211 nM
  TGI: 649 nM
[41]
  GI50: 930 nM
  TGI: 10100 nM
[42]
  GI50: 567 nM
  TGI: 16400 nM
[43]
  GI50: 297 nM
  TGI: 2790 nM
[44]
  GI50: 262 nM
  TGI: 3150 nM
[45]
  GI50: 2010 nM
  TGI: 7090 nM
[46]
  GI50: 145 nM
  TGI: 315 nM
[47]
  GI50: 456 nM
  TGI: 2950 nM
[48]
  GI50: 935 nM
  TGI: 16200 nM
[49]
  GI50: 880 nM
  TGI: 14900 nM
[50]
  GI50: 434 nM
  TGI: 3620 nM
[51]
  GI50: 712 nM
  TGI: 14300 nM
[52]
  GI50: 326 nM
  TGI: 1260 nM
[53]
  GI50: 419 nM
  TGI: 2870 nM
[54]
  GI50: 464 nM
  TGI: 14600 nM
[55]
  GI50: 472 nM
  TGI: 5340 nM
[56]
  GI50: 393 nM
  TGI: 6390 nM
[57]
  GI50: 410 nM
  TGI: 2760 nM
[58]
  GI50: 462 nM
  TGI: 24200 nM
